# Reference: publication PMC11133798, “Vosoritide treatment for children with hypochondroplasia: a phase 2 trial” (eClinicalMedicine, 2024)
# How the values were obtained:
# [1] = system: children with hypochondroplasia; design: species or system human; details: in vivo
# Text: The study has 3 prespecified co-primary outcomes: 1. To evaluate the safety and tolerability of daily subcutaneous injections of vosoritide administered for 12 months in patients with selected genetic causes of short stature, 2. To evaluate the change from baseline in age-sex standardized annualized growth velocity after 12 months of daily SC injections of vosoritide in patients with selected genetic causes of short stature, and 3. To evaluate the change from baseline in age-sex standardized height SDS after 12 months of daily SC injections of vosoritide in patients with selected genetic causes of short stature. Annualized growth velocity was standardized using data from the First Zurich Longitudinal Study of Growth and Development[9] as it includes growth velocity data starting at age 2.5 years. Height SDS was calculated using the United States CDC growth charts.[8] Hypochondroplasia specific height SDS was calculated using recently published hypochondroplasia growth curves.[10] To measure these outcomes, the following 3 co-primary endpoints were specified: 1. The incidence of adverse events per participant, 2. The change from baseline in age-sex standardized annualized growth velocity after 12 months of treatment, and 3. The change from baseline in age-sex standardized height SDS after 12 months of treatment. Height was measured five times at each study visit on a wall-mounted calibrated Harpenden stadiometer. The average of all five values was used. Safety assessments included routine laboratory evaluations at each visit, baseline and Month 12 echocardiograms, electrocardiograms at each visit, vital signs measurements, and spine X-rays at Day 1 and Month 12. No formal power calculations were done for this proof of principle study. Sample size was determined based on logistical feasibility. Medication adherence was calculated using the number of returned empty vials divided by the number of days of prescribed therapy. Demographics and clinical characteristics were summarized with mean and standard deviation (SD), median and interquartile (IQR) for numerical variables, frequency and proportion for categorical variables. Primary and secondary clinical outcomes were summarized with mean (SD) for the 6-month observation period and the 12-month treatment period. Paired t-tests were carried out to compare the difference between the treatment and observation periods. The corresponding p-value and 95% confidence interval (CI) were reported. Box and whisker plots were used for both primary endpoints (annualized growth velocity and height SDS) and exploratory endpoints (CXM and cGMP) to visualize the trends for the change from baseline to each of the follow-up visits. Safety data (AEs) were summarized as count and percentage of patients as well as the number of total occurrences per each listed AE for the observation period and the treatment period, respectively. As exploratory analyses, the primary endpoints were stratified based on age, baseline growth velocity and baseline height SDS. The summaries of mean (SD) for each visit, mean differences between treatment and observation periods, and the corresponding p-value and 95% CI were all reported. Parent reported quality of life using the […] scale was also reported with a similar tabular format. Data were analyzed using SAS for Windows version 9.4 (SAS Institute Inc., Cary, NC). A two-sided test with a significance level of 0.05 was used for all hypothesis tests.
# [2] = system: rat chondrosarcoma cells transfected with FGFR3 containing the hypochondroplasia mutation; details: addition of vosoritide; similar to achondroplasia mutation; n=3; ref unpublished BioMarin data; cited from earlier work
# Text: The rationale for using vosoritide in hypochondroplasia is primarily an extension of the positive clinical trial results in patients with achondroplasia, a more severe perturbation of the same gen ...
# [3] = system: neutral endopeptidase (NEP); details: conveyed by Pro-Gly addition on the N-terminus; protocol statement, no data shown; cited from earlier work
# Text: Third, Dr. Dauber (the PI) will p ...
# [4] = system: patients with achondroplasia; details: cited from earlier work
sequence,measurement,setting,value
PGQEHPNARKYKGANKKGLSKGCFGLKLDRIGSMSGLGC (disulfide) [vosoritide],Abdominal pain: # of patients,[1],5
same,Abdominal pain: # of total occurrences,[1],15
same,Abdominal pain: % of patients,[1],20.8%
same,Any injection site reaction (overall): # of patients,[1],20
same,Any injection site reaction (overall): # of total occurrences,[1],329
same,Any injection site reaction (overall): % of patients,[1],83.3%
same,Assay for drug induced anti-platelet antibodies,[1],negative
same,Cough: # of patients,[1],12
same,Cough: # of total occurrences,[1],20
same,Cough: % of patients,[1],50.0%
same,Diarrhea: # of patients,[1],2
same,Diarrhea: # of total occurrences,[1],3
same,Diarrhea: % of patients,[1],8.3%
same,Discontinuation due to a treatment related adverse event,[1],No participants discontinued treatment
same,Dizziness: # of patients,[1],3
same,Dizziness: # of total occurrences,[1],4
same,Dizziness: % of patients,[1],12.5%
same,Ear infection: # of patients,[1],2
same,Ear infection: # of total occurrences,[1],2
same,Ear infection: % of patients,[1],8.3%
same,Epistaxis: # of patients,[1],3
same,Epistaxis: # of total occurrences,[1],3
same,Epistaxis: % of patients,[1],12.5%
same,Fever: # of patients,[1],13
same,Fever: # of total occurrences,[1],29
same,Fever: % of patients,[1],54.2%
same,Headache: # of patients,[1],6
same,Headache: # of total occurrences,[1],17
same,Headache: % of patients,[1],25.0%
same,Injection site bruising: # of patients,[1],6
same,Injection site bruising: # of total occurrences,[1],20
same,Injection site bruising: % of patients,[1],25.0%
same,Injection site erythema: # of patients,[1],13
same,Injection site erythema: # of total occurrences,[1],113
same,Injection site erythema: % of patients,[1],54.2%
same,Injection site pain: # of patients,[1],7
same,Injection site pain: # of total occurrences,[1],61
same,Injection site pain: % of patients,[1],29.2%
same,Injection site swelling: # of patients,[1],13
same,Injection site swelling: # of total occurrences,[1],116
same,Injection site swelling: % of patients,[1],54.2%
same,Injection site urticaria: # of patients,[1],7
same,Injection site urticaria: # of total occurrences,[1],19
same,Injection site urticaria: % of patients,[1],29.2%
same,Laceration: # of patients,[1],3
same,Laceration: # of total occurrences,[1],3
same,Laceration: % of patients,[1],12.5%
same,Nasopharyngitis: # of patients,[1],2
same,Nasopharyngitis: # of total occurrences,[1],2
same,Nasopharyngitis: % of patients,[1],8.3%
same,Other Grade 3 or higher adverse events,[1],no other Grade 3 or higher adverse events
same,Rash maculo-papular: # of patients,[1],2
same,Rash maculo-papular: # of total occurrences,[1],2
same,Rash maculo-papular: % of patients,[1],8.3%
same,Rhinorrhea: # of patients,[1],6
same,Rhinorrhea: # of total occurrences,[1],6
same,Rhinorrhea: % of patients,[1],25.0%
same,Scoliosis: # of patients,[1],3
same,Scoliosis: # of total occurrences,[1],3
same,Scoliosis: % of patients,[1],12.5%
same,Severity and outcome of injection site reactions,[1],grade 1 or 2 and self-resolved
same,Symptomatic hypotension,[1],no episodes of symptomatic hypotension
same,Syncope,[1],One participant
same,Upper respiratory tract infection: # of patients,[1],2
same,Upper respiratory tract infection: # of total occurrences,[1],2
same,Upper respiratory tract infection: % of patients,[1],8.3%
same,Vomiting: # of patients,[1],11
same,Vomiting: # of total occurrences,[1],18
same,Vomiting: % of patients,[1],45.8%
same,ERK1/2 activation,[2],decrease ERK1/2 activation
same,Degradation by neutral endopeptidase (NEP),[3],resistance to neutral endopeptidase (NEP) degradation
same,Mean gain in height standard deviation score,"[4]; achondroplasia, 15 µg/kg, after 42 months of intervention, ref 2 (protocol list)",1.03 SD
same,Efficacy of 15 µg/kg/day dose versus 30 µg/kg/day dose,"[4]; annualized growth velocity, Phase II achondroplasia, ref 2 (protocol list)",equally efficacious to the 30 µg/kg/day dose
same,Symptomatic hypotensive episode,[4]; in vivo,a single patient
